Earlier results as cited in US20190117655A1, “Treatment of Biliary Duct Cancer” (ASLAN Pharmaceuticals PTE LTD, priority 2015, published 2019).

Tested on: advanced or metastatic biliary tract cancer
Conditions: capecitabine monotherapy, similar populations; cited from earlier work

For `CCCCCOC(=O)Nc1nc(=O)n([C@@H]2O[C@H](C)[C@@H](O)[C@H]2O)cc1F` [capecitabine], which “Historical response rate, ORR” value is on record?
Its value is 6-8%.
